From the SangsterLogP compilation

| Compound | logP |
| --- | --- |
| CSc1n[nH]c(C2CCCCC2C(=O)Nc2ccc(Br)cc2)n1 (stereo unspecified) | 4.02 |
| COc1ccc(NC(=O)C2CCCCC2c2nc(SC)n[nH]2)cc1 (stereo unspecified) | 3.19 |
| CSc1n[nH]c(C2C3C=CC(C3)C2C(=O)Nc2ccc(Br)cc2)n1 (stereo unspecified) | 3.67 |
| CSc1n[nH]c(C2CCCCC2C(=O)Nc2ccccc2Cl)n1 (stereo unspecified) | 3.84 |
| CSc1n[nH]c(C2C3C=CC(C3)C2C(=O)Nc2cccc(C)c2)n1 (stereo unspecified) | 3.29 |
| CCCNC(=O)C1CCCCC1c1nc(SC)n[nH]1 (stereo unspecified) | 2.55 |
| CSc1n[nH]c(C2C3C=CC(C3)C2C(=O)Nc2ccccc2)n1 (stereo unspecified) | 2.91 |
| CSc1n[nH]c(C2CCCCC2C(=O)NCCc2ccccc2)n1 (stereo unspecified) | 3.51 |
| CCCCNC(=O)C1C2C=CC(C2)C1c1nc(SC)n[nH]1 (stereo unspecified) | 2.55 |
| CSc1n[nH]c(C2CCCCC2C(=O)NC2CCCCC2)n1 (stereo unspecified) | 3.48 |
| CSc1n[nH]c(C2C3C=CC(C3)C2C(=O)NCCc2ccccc2)n1 (stereo unspecified) | 3.12 |
| CCCCNC(=O)C1CCCCC1c1nc(SC)n[nH]1 (stereo unspecified) | 2.97 |
| CSc1n[nH]c(C2C3C=CC(C3)C2C(=O)NCc2ccccc2)n1 (stereo unspecified) | 2.8 |
| COc1ccc(NC(=O)C2C3C=CC(C3)C2c2nc(SC)n[nH]2)cc1 (stereo unspecified) | 2.86 |
| CSc1n[nH]c(C2C3C=CC(C3)C2C(=O)NC2CCCCC2)n1 (stereo unspecified) | 3.03 |
| CCC(C)NC(=O)C1C2C=CC(C2)C1c1nc(SC)n[nH]1 (stereo unspecified) | 2.57 |
| CSc1n[nH]c(C2CCCCC2C(=O)NCc2ccccc2)n1 (stereo unspecified) | 3.17 |
| CCCNC(=O)C1C2C=CC(C2)C1c1nc(SC)n[nH]1 (stereo unspecified) | 2.13 |
| CSc1n[nH]c(C2CCCCC2C(=O)Nc2ccccc2)n1 (stereo unspecified) | 3.3 |
| CCC(C)NC(=O)C1CCCCC1c1nc(SC)n[nH]1 (stereo unspecified) | 2.97 |
| CSc1n[nH]c(C2C3C=CC(C3)C2C(=O)Nc2ccccc2Cl)n1 (stereo unspecified) | 3.44 |
